Laboratory results taken from article PMC5050210, “BdorOBP83a-2 Mediates Responses of the Oriental Fruit Fly to Semiochemicals” (Frontiers in Physiology, 2016).

Tests used:
[1] = biological target: T1, BdorOBP56h (Bactrocera dorsalis, UniProt A0A0G2UMU0); experiment: biochemical; set-up: Fluorescence competitive displacement of 1-NPN from recombinant OBP, 25 °C, pH 7.4; competitor 5-50 uM; conditions: 1-NPN displacement; for IC50: 2 uM protein, 2 uM 1-NPN, extrapolated, read-out: BdorOBP56 / IC50; for Kd: Kd from IC50, extrapolated, read-out: BdorOBP56 / Kd
T1 construct: gene OBP56h; mature protein without signal peptide
T1 sequence (A0A0G2UMU0 20-136): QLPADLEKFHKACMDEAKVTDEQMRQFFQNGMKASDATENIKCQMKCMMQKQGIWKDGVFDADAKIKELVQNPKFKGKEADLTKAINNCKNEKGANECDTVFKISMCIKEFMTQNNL
Experimental: (§1) Fluorescence spectra were measured on an F-7000 FL Fluorescence Spectrophotometer (Hitachi) in a 10 mm light path quartz cuvette at 25°C. All were excited at 337 nm with emission and excitation slit of both 10 nm. The emission spectra were recorded between 350 and 500 nm. […] All measurements were performed in triplicates and mean values and standard errors are calculated. […] To determine the roles of specific OBPs in recognition of attractants in B. dorsalis, recombinant proteins of selected antenna-abundant OBPs and CSPs were obtained using a prokaryotic expression system (Figure 5). Purified OBPs and CSPs were used to determine binding affinity of each protein via fluorescence competitive binding assays. Thirteen pure attractant compounds were tested against each recombinant protein. […] Except for BdorCSP3 and BdorOBP84a-2, all remaining OBPs could bind to the tested compounds (Figure 6; Table S8). […] Alternatively they might be involved in functions other than odor detection. […] Overall, we observed lower binding affinity with our recombinant proteins and tested attractants. […] In other studies, much higher affinity has been reported. For example, competitive binding assays with a lepidopteran pheromone-binding protein can reach nearly 100% displacement (Hooper et al., [2009]; Gu et al., [2013]), and competitive binding assays with an aphid OBP (OBP7) can reach about 80% displacement with the alarm pheromone (E)-ss-farnesene (Sun et al., [2012]). The biological significance of the observed lower affinity with B. doralis OBPs here remains to be determined. It could be due to diverse binding mechanisms between different functional OBPs and the corresponding compounds. Alternatively, BdorOBP83a-2 may […] The sequences of BdorOBPs and BdorCSPs encoding mature proteins (without signal peptide) were amplified by PCR using specific primers carrying a restriction site EcoRI or XhoI (Table S2). PCR fragments were digested with both EcoRI and XhoI enzymes and the released DNA fragments were cloned into a PET-32a vector (Invitrogen), which were used to transform BL21 (DE3) E. coli competent cells (Invitrogen). A selected positive clone was grown overnight in 5 mL [compound left out] LB/ampicillin medium overnight at 37°C. Protein expression was induced with 1 mM IPTG for 3 h when the culture had reached an OD600-value of 0.7–0.9. Cells were then harvested by centrifugation and lysed by sonication. After sonication and centrifugation, most recombinant proteins were present in inclusion bodies. […] Renaturation of purified proteins were accomplished by gradient dilution at 4°C. His-tag was removed by digestion with recombinant enterokinase (Novagen) and the digested mixtures were passed through a HisTrap affinity column to remove any undigested protein. At each step during protein preparation and purification, protein extracts, and purified proteins were examined on 15% SDS-PAGE.

[2] = biological target: T2, BdorOBP83a-1 (Bactrocera dorsalis, UniProt A0A0G2UGI4); experiment: biochemical; set-up: Fluorescence competitive displacement of 1-NPN from recombinant OBP, 25 °C, pH 7.4; competitor 5-50 uM; conditions: 1-NPN displacement, Kd from IC50, extrapolated
T2 construct: gene OBP83a-1; mature protein without signal peptide
T2 sequence (A0A0G2UGI4 32-155): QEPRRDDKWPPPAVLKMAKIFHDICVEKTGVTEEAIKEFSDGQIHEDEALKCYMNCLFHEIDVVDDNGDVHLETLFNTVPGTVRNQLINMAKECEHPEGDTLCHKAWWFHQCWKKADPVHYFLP
Experimental: as §1

[3] = biological target: T3, BdorOBP83a-2 (Bactrocera dorsalis, UniProt A0A0G2UEQ3); experiment: biochemical; set-up: Fluorescence competitive displacement of 1-NPN from recombinant OBP, 25 °C, pH 7.4; competitor 5-50 uM; conditions: 1-NPN displacement, Kd from IC50
T3 construct: gene OBP83a-2; mature protein without signal peptide
T3 sequence (A0A0G2UEQ3 24-148): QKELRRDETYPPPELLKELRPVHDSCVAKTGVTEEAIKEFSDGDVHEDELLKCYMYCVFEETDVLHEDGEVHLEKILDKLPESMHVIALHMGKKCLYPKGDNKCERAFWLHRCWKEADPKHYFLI
Experimental: as §1

[4] = biological target: T4, BdorOBP84a-1 (Bactrocera dorsalis, UniProt A0A0G2UGI7); experiment: biochemical; set-up: Fluorescence competitive displacement of 1-NPN from recombinant OBP, 25 °C, pH 7.4; competitor 5-50 uM; conditions: 1-NPN displacement; for IC50: 2 uM protein, 2 uM 1-NPN, extrapolated; for Kd: Kd from IC50, extrapolated
T4 construct: gene OBP84a-1; mature protein without signal peptide
T4 sequence (A0A0G2UGI7 25-167): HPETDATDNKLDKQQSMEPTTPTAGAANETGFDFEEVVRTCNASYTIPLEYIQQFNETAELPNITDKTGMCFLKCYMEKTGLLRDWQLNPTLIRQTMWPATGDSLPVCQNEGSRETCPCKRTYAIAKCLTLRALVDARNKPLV
Experimental: as §1

[5] = biological target: T2, BdorOBP83a-1; experiment: biochemical; set-up: Fluorescence competitive displacement of 1-NPN from recombinant OBP, 25 °C, pH 7.4; competitor 5-50 uM; conditions: 1-NPN displacement, 2 uM protein, 2 uM 1-NPN, extrapolated
Experimental: (§2) Fluorescence spectra were measured on an F-7000 FL Fluorescence Spectrophotometer (Hitachi) in a 10 mm light path quartz cuvette at 25°C. […] The emission spectra were recorded between 350 and 500 nm. […] All measurements were performed in triplicates and mean values and standard errors are calculated. […] To determine the roles of specific OBPs in recognition of attractants in B. dorsalis, recombinant proteins of selected antenna-abundant OBPs and CSPs were obtained using a prokaryotic expression system (Figure 5). Purified OBPs and CSPs were used to determine binding affinity of each protein via fluorescence competitive binding assays. Thirteen pure attractant compounds were tested against each recombinant protein. […] PCR fragments were digested with both EcoRI and XhoI enzymes and the released DNA fragments were cloned into a PET-32a vector (Invitrogen), which were used to transform BL21 (DE3) E. coli competent cells (Invitrogen). […] LB/ampicillin medium overnight at 37°C. Protein expression was induced with 1 mM IPTG for 3 h when the culture had reached an OD600-value of 0.7–0.9. Cells were then harvested by centrifugation and lysed by sonication. […] Renaturation of purified proteins were accomplished by gradient dilution at 4°C. His-tag was removed by digestion with recombinant enterokinase (Novagen) and the digested mixtures were passed through a HisTrap affinity column to remove any undigested protein. At each step during protein preparation and purification, protein extracts, and purified proteins were examined on 15% SDS-PAGE.

[6] = biological target: T3, BdorOBP83a-2; experiment: biochemical; set-up: Fluorescence competitive displacement of 1-NPN from recombinant OBP, 25 °C, pH 7.4; competitor 5-50 uM; conditions: 1-NPN displacement, 2 uM protein, 2 uM 1-NPN
Experimental: as §2

[7] = biological target: T2, BdorOBP83a-1; experiment: 1-NPN fluorescence competition; format: binding; conditions: 50 mM Tris-HCl pH 7.4, 25°C; 2 μM protein, 2 μM 1-NPN; competitive displacement
[8] = biological target: T3, BdorOBP83a-2; experiment: 1-NPN fluorescence competition; format: binding; conditions: 50 mM Tris-HCl pH 7.4, 25°C; 2 μM protein, 2 μM 1-NPN; competitive displacement
[9] = biological target: T4, BdorOBP84a-1; experiment: 1-NPN fluorescence competition; format: binding; conditions: 50 mM Tris-HCl pH 7.4, 25°C; 2 μM protein, 2 μM 1-NPN; competitive displacement
From the text: 1-NPN fluorescence competition on BdorOBP84a-1 | all remaining OBPs could bind to the tested compounds

[10] = biological target: T1, BdorOBP56h; experiment: 1-NPN fluorescence competition; format: binding; conditions: 50 mM Tris-HCl pH 7.4, 25°C; 2 μM protein, 2 μM 1-NPN; competitive displacement
Experimental: 1-NPN fluorescence competition on BdorOBP56h | all remaining OBPs could bind to the tested compounds

[11] = biological target: T5, BdorCSP3 (Bactrocera dorsalis, UniProt A0A0G2UMR0); experiment: direct fluorescence titration; format: binding; conditions: 50 mM Tris-HCl pH 7.4, 25°C; 2 μM protein, 1-16 μM 1-NPN; fluorescent probe
T5 construct: gene CSP3; mature protein without signal peptide
T5 sequence (A0A0G2UMR0 23-156): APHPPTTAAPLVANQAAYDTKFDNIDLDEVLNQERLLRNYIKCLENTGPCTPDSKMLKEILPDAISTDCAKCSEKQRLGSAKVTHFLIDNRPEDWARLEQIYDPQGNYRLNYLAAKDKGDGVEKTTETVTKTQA

[12] = biological target: T1, BdorOBP56h; experiment: direct fluorescence titration; format: binding; conditions: 50 mM Tris-HCl pH 7.4, 25°C; 2 μM protein, 1-16 μM 1-NPN; fluorescent probe
[13] = biological target: T2, BdorOBP83a-1; experiment: direct fluorescence titration; format: binding; conditions: 50 mM Tris-HCl pH 7.4, 25°C; 2 μM protein, 1-16 μM 1-NPN; fluorescent probe
[14] = biological target: T6, BdorOBP84a-2 (Bactrocera dorsalis, UniProt A0A0G2UEQ7); experiment: direct fluorescence titration; format: binding; conditions: 50 mM Tris-HCl pH 7.4, 25°C; 2 μM protein, 1-16 μM 1-NPN; fluorescent probe
T6 construct: gene OBP84a-2; mature protein without signal peptide
T6 sequence (A0A0G2UEQ7 26-170): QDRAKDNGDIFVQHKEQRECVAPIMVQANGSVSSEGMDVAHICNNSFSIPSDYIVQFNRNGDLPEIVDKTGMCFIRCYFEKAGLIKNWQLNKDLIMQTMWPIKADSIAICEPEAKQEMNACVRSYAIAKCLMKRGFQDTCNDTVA

[15] = biological target: T3, BdorOBP83a-2; experiment: direct fluorescence titration; format: binding; conditions: 50 mM Tris-HCl pH 7.4, 25°C; 2 μM protein, 1-16 μM 1-NPN; fluorescent probe
[16] = biological target: T4, BdorOBP84a-1; experiment: direct fluorescence titration; format: binding; conditions: 50 mM Tris-HCl pH 7.4, 25°C; 2 μM protein, 1-16 μM 1-NPN; fluorescent probe

IC50 [1] [µM] | Kd [1] [µM] | Kd [2] [µM] | Kd [3] [µM] | IC50 [4] [µM] | Kd [4] [µM] | IC50 [5] [µM] | IC50 [6] [µM] | SMILES | also measured
> 50 | > 50 | > 50 | > 50 | > 50 | > 50 | > 50 | > 50 | CC1=CCC(=C(C)C)CC1 [Terpinolene] | 
> 50 | > 50 |  | > 50 | > 50 | > 50 |  | > 50 | CCOC(=O)c1ccccc1 [Ethyl benzoate] | 
> 50 |  |  |  |  |  | > 50 | 50.8 | C=CCc1ccc(OC)c(OC)c1 [methyl eugenol, 4-allyl-1,2-dimethoxybenzene] | Kd [7]: 2530 µM; Kd [9]: 79700 µM; Kd [8]: 34 µM; Kd [10]: 578 µM
> 50 | > 50 |  |  | > 50 | > 50 |  | > 50 | CCCCCC1CCC(=O)O1 (stereo not drawn) [γ-nonanoic lactone] | Kd [7]: 85900 µM; Kd [8]: 52.5 µM

Second part, the molecule before the results:

SMILES | IC50 [1] [µM] | Kd [1] [µM] | Kd [2] [µM] | Kd [3] [µM] | IC50 [4] [µM] | Kd [4] [µM] | IC50 [5] [µM] | IC50 [6] [µM] | also measured
C/C=C(\C)C(=O)OCC [Ethyl tiglate] | > 50 | > 50 | > 50 | > 50 |  |  | > 50 | > 50 | 
CCCCC1CCC(=O)O1 (stereo not drawn) [γ-octalactone] | > 50 | > 50 |  |  | > 50 | > 50 | > 50 | > 50 | 
COc1cc(/C=C/CO)ccc1O [E-coniferyl alcohol] |  |  | > 50 | > 50 | > 50 | > 50 | > 50 | > 50 | 
C=CC(O)CCCCC (stereo not drawn) [1-octen-3-ol] | > 50 | > 50 | > 50 | > 50 | > 50 | > 50 | > 50 | > 50 | 
CCCC1CCCC(=O)O1 (stereo not drawn) [δ-octalactone] | > 50 | > 50 |  |  |  |  |  | > 50 | Kd [7]: 12700 µM; Kd [8]: 54.7 µM
c1ccc2scnc2c1 [Benzothiazole] | > 50 | > 50 | > 50 | > 50 | > 50 | > 50 | > 50 | > 50 | 
CCCCCCCC1CCC(=O)O1 (stereo not drawn) [γ-undecalactone] |  |  |  |  | > 50 | > 50 |  |  | 
CCOC(C)=O [Ethyl acetate] | > 50 | > 50 | > 50 | > 50 |  |  | > 50 | > 50 | 
c1ccc(Nc2cccc3ccccc23)cc1 [1-NPN] |  |  |  |  |  |  |  |  | K1-NPN [11]: exhibited high affinity to the fluorescent probe 1-NPN; K1-NPN [12]: exhibited high affinity to the fluorescent probe 1-NPN; K1-NPN [13]: exhibited high affinity to the fluorescent probe 1-NPN; K1-NPN [14]: exhibited high affinity to the fluorescent probe 1-NPN; K1-NPN [15]: exhibited high affinity to the fluorescent probe 1-NPN; K1-NPN [16]: exhibited high affinity to the fluorescent probe 1-NPN
